# Laboratory results taken from PubChem BioAssay (NCI).
#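 At the GI50, growth is halved. TGI is the concentration that stops growth completely.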
# Columns and labels:
# Test in all cases: NCI-60 cell line screen, 384-well format
# SK-MEL-2 melanoma = test system: SK-MEL-2 melanoma
# RXF 393 renal = test system: RXF 393 renal
# SF-539 CNS = test system: SF-539 CNS
# PC-3 prostate = test system: PC-3 prostate
# CCRF-CEM leukemia = test system: CCRF-CEM leukemia
# HS 578T breast = test system: HS 578T breast
# HCT-15 colon = test system: HCT-15 colon
# HCC-2998 colon = test system: HCC-2998 colon
# UACC-62 melanoma = test system: UACC-62 melanoma
# MDA-MB-435 melanoma = test system: MDA-MB-435 melanoma
# DU-145 prostate = test system: DU-145 prostate
# SN12C renal = test system: SN12C renal
# M14 melanoma = test system: M14 melanoma
# U251 glioblastoma = test system: U251 glioblastoma
# HOP-62 NSCLC = test system: HOP-62 NSCLC
# SNB-75 CNS = test system: SNB-75 CNS
# SF-295 CNS = test system: SF-295 CNS
# UACC-257 melanoma = test system: UACC-257 melanoma
# OVCAR-5 ovarian = test system: OVCAR-5 ovarian
# MCF7 breast = test system: MCF7 breast
# HT29 colon = test system: HT29 colon
# OVCAR-3 ovarian = test system: OVCAR-3 ovarian
# BT-549 breast = test system: BT-549 breast
# SF-268 CNS = test system: SF-268 CNS
# MALME-3M melanoma = test system: MALME-3M melanoma
# LOX IMVI melanoma = test system: LOX IMVI melanoma
# EKVX NSCLC = test system: EKVX NSCLC
# 786-0 renal = test system: 786-0 renal
# A498 renal = test system: A498 renal
# COLO 205 colon = test system: COLO 205 colon
# NCI-H23 lung = test system: NCI-H23 lung
# TK-10 renal = test system: TK-10 renal
# T-47D breast = test system: T-47D breast
# SW-620 colon = test system: SW-620 colon
# SK-OV-3 ovarian = test system: SK-OV-3 ovarian
# ACHN renal = test system: ACHN renal
# NCI-H522 lung = test system: NCI-H522 lung
# NCI/ADR-RES ovarian = test system: NCI/ADR-RES ovarian
# KM12 colon = test system: KM12 colon
# OVCAR-8 ovarian = test system: OVCAR-8 ovarian
# MOLT-4 leukemia = test system: MOLT-4 leukemia
# OVCAR-4 ovarian = test system: OVCAR-4 ovarian
# MDA-MB-231 breast = test system: MDA-MB-231 breast
# SK-MEL-28 melanoma = test system: SK-MEL-28 melanoma
# NCI-H322M lung = test system: NCI-H322M lung
# NCI-H460 NSCLC = test system: NCI-H460 NSCLC
# RPMI-8226 leukemia = test system: RPMI-8226 leukemia
# SK-MEL-5 melanoma = test system: SK-MEL-5 melanoma
# HL-60(TB) leukemia = test system: HL-60(TB) leukemia
smiles,measurement,setting,value
C[C@@H](Oc1ccc2[nH]nc(/C=C/c3cnn(CCO)c3)c2c1)c1c(Cl)cncc1Cl,GI50,SK-MEL-2 melanoma,606 nM
same,TGI,SK-MEL-2 melanoma,2130 nM
same,GI50,RXF 393 renal,54.4 nM
same,TGI,RXF 393 renal,230 nM
same,GI50,SF-539 CNS,23.7 nM
same,TGI,SF-539 CNS,154 nM
same,GI50,PC-3 prostate,1280 nM
same,TGI,PC-3 prostate,> 100000 nM
same,GI50,CCRF-CEM leukemia,25.5 nM
same,TGI,CCRF-CEM leukemia,60.5 nM
same,GI50,HS 578T breast,29.7 nM
same,TGI,HS 578T breast,229 nM
same,GI50,HCT-15 colon,117 nM
same,TGI,HCT-15 colon,1250 nM
same,GI50,HCC-2998 colon,399 nM
same,TGI,HCC-2998 colon,2120 nM
same,GI50,UACC-62 melanoma,1290 nM
same,TGI,UACC-62 melanoma,2590 nM
same,GI50,MDA-MB-435 melanoma,1140 nM
same,TGI,MDA-MB-435 melanoma,2500 nM
same,GI50,DU-145 prostate,97.2 nM
same,TGI,DU-145 prostate,755 nM
same,GI50,SN12C renal,47.7 nM
same,TGI,SN12C renal,343 nM
same,GI50,M14 melanoma,331 nM
same,TGI,M14 melanoma,2040 nM
same,GI50,U251 glioblastoma,156 nM
same,TGI,U251 glioblastoma,766 nM
same,GI50,HOP-62 NSCLC,82 nM
same,TGI,HOP-62 NSCLC,1080 nM
same,GI50,SNB-75 CNS,23.4 nM
same,TGI,SNB-75 CNS,213 nM
same,GI50,SF-295 CNS,71.1 nM
same,TGI,SF-295 CNS,2060 nM
same,GI50,UACC-257 melanoma,1150 nM
same,TGI,UACC-257 melanoma,2530 nM
same,GI50,OVCAR-5 ovarian,111 nM
same,TGI,OVCAR-5 ovarian,475 nM
same,GI50,MCF7 breast,46.3 nM
same,TGI,MCF7 breast,1600 nM
same,GI50,HT29 colon,278 nM
same,TGI,HT29 colon,> 100000 nM
same,GI50,OVCAR-3 ovarian,74.5 nM
same,TGI,OVCAR-3 ovarian,1570 nM
same,GI50,BT-549 breast,61.2 nM
same,TGI,BT-549 breast,229 nM
same,GI50,SF-268 CNS,124 nM
same,TGI,SF-268 CNS,384 nM
same,GI50,MALME-3M melanoma,1120 nM
same,TGI,MALME-3M melanoma,2340 nM
same,GI50,LOX IMVI melanoma,70 nM
same,TGI,LOX IMVI melanoma,199 nM
same,GI50,EKVX NSCLC,36.8 nM
same,TGI,EKVX NSCLC,757 nM
same,GI50,786-0 renal,214 nM
same,TGI,786-0 renal,1200 nM
same,GI50,A498 renal,171 nM
same,TGI,A498 renal,> 100000 nM
same,GI50,COLO 205 colon,24.8 nM
same,TGI,COLO 205 colon,105 nM
same,GI50,NCI-H23 lung,43.3 nM
same,TGI,NCI-H23 lung,333 nM
same,GI50,TK-10 renal,98.6 nM
same,TGI,TK-10 renal,606 nM
same,GI50,T-47D breast,263 nM
same,TGI,T-47D breast,> 100000 nM
same,GI50,SW-620 colon,60.5 nM
same,TGI,SW-620 colon,469 nM
same,GI50,SK-OV-3 ovarian,114 nM
same,GI50,ACHN renal,85.8 nM
same,TGI,ACHN renal,> 100000 nM
same,GI50,NCI-H522 lung,31 nM
same,TGI,NCI-H522 lung,554 nM
same,GI50,NCI/ADR-RES ovarian,227 nM
same,TGI,NCI/ADR-RES ovarian,1410 nM
same,GI50,KM12 colon,< 10 nM
same,TGI,KM12 colon,145 nM
same,GI50,OVCAR-8 ovarian,174 nM
same,TGI,OVCAR-8 ovarian,1450 nM
same,GI50,MOLT-4 leukemia,19.5 nM
same,TGI,MOLT-4 leukemia,48.8 nM
same,GI50,OVCAR-4 ovarian,1500 nM
same,TGI,OVCAR-4 ovarian,4750 nM
same,GI50,MDA-MB-231 breast,161 nM
same,TGI,MDA-MB-231 breast,3450 nM
same,GI50,SK-MEL-28 melanoma,1310 nM
same,TGI,SK-MEL-28 melanoma,2630 nM
same,GI50,NCI-H322M lung,331 nM
same,TGI,NCI-H322M lung,2480 nM
same,GI50,NCI-H460 NSCLC,37 nM
same,TGI,NCI-H460 NSCLC,1090 nM
same,GI50,RPMI-8226 leukemia,34.3 nM
same,TGI,RPMI-8226 leukemia,1330 nM
same,GI50,SK-MEL-5 melanoma,510 nM
same,TGI,SK-MEL-5 melanoma,1920 nM
same,GI50,HL-60(TB) leukemia,31.7 nM
same,TGI,HL-60(TB) leukemia,131 nM
